Measured values from publication PMC9783573, “Introduction of a SiFA Moiety into the D-Glutamate Chain of DOTA-PP-F11N Results in Radiohybrid-Based CCK-2R-Targeted Compounds with Improved Pharmacokinetics In Vivo” (Pharmaceuticals, 2022).
Starred links: 1 amine or outer side, 2 acyl side, 3 side chain; linkers in the order of their positions; H or OH if unused. Non-standard residues stand in square brackets, D forms with d. Residues, ends and D or L forms follow the SMILES beside them. *: point of attachment. X1 = O=C(O)CN1CCN(CC(=O)O)CCN([C@H](CCC(=O)*)C(=O)O)CCN(CC(=O)O)CC1; Benzoyl(4-SiFtBu2) = CC(C)(C)[Si](F)(c1ccc(C(=O)*)cc1)C(C)(C)C; DOTA = O=C(O)CN1CCN(CC(=O)O)CCN(CC(=O)*)CCN(CC(=O)O)CC1; d(γGlu) = O=C(O)[C@@H](CCC(=O)[*:2])N[*:1]; Nle = CCCC[C@H](N)C(=O)O; dDap = NC[C@@H](N)C(=O)O

Assay: Lipophilicity, n-octanol/PBS (pH 7.4) distribution coefficient
Format: physicochemical
Conditions: 177Lu-labelled peptide; n-octanol/PBS pH 7.4; read-out: logD7.4
Experimental: Lipophilicity (depicted as octanol-phosphate-buffered saline solution (PBS, pH = 7.4) distribution coefficient, logD7.4) was determined via dissolving the ^177Lu-labelled peptide (approx. 1 MBq) in a mixture (1/1, v/v) of n-octanol and PBS. The suspension was vortexed in a reaction vial (1.5 mL) for 3 min at RT and the vial was centrifuged at 9000× […] for 5 min (Biofuge 15, Heraus Sepatech GmbH, Osterode, Germany). 200 μL aliquots of both layers were measured separately in a γ-counter (Perkin Elmer, Waltham, MA, USA). The experiment was repeated at least five times.

Row | SMILES | logD
1 | CCCC[C@H](NC(=O)[C@H](Cc1c[nH]c2ccccc12)NC(=O)CNC(=O)[C@H](Cc1ccc(O)cc1)NC(=O)[C@H](C)NC(=O)CC[C@@H](NC(=O)CC[C@@H](NC(=O)CC[C@@H](NC(=O)CC[C@@H](NC(=O)CC[C@@H](NC(=O)[C@@H](CNC(=O)c1ccc([Si](F)(C(C)(C)C)C(C)(C)C)cc1)NC(=O)CC[C@@H](NC(=O)CC[C@H](C(=O)O)N1CCN(CC(=O)O)CCN(CC(=O)O)CCN(CC(=O)O)CC1)C(=O)O)C(=O)O)C(=O)O)C(=O)O)C(=O)O)C(=O)O)C(=O)N[C@@H](CC(=O)O)C(=O)N[C@@H](Cc1ccccc1)C(N)=O [[nat/177Lu]Lu-(R)-DOTAGA-rhCCK-15, metal not drawn] ({X1-d(γGlu)}-[dDap](Benzoyl(4-SiFtBu2))[d(γGlu)][d(γGlu)][d(γGlu)][d(γGlu)][d(γGlu)]AYGW[Nle]DF-NH2) | -2.5 ± 0.02
2 | CCCC[C@H](NC(=O)[C@H](Cc1c[nH]c2ccccc12)NC(=O)CNC(=O)[C@H](Cc1ccc(O)cc1)NC(=O)[C@H](C)NC(=O)CC[C@@H](NC(=O)CC[C@@H](NC(=O)CC[C@@H](NC(=O)CC[C@@H](NC(=O)CC[C@@H](NC(=O)CC[C@@H](NC(=O)CC[C@@H](NC(=O)[C@@H](CNC(=O)c1ccc([Si](F)(C(C)(C)C)C(C)(C)C)cc1)NC(=O)CC[C@H](C(=O)O)N1CCN(CC(=O)O)CCN(CC(=O)O)CCN(CC(=O)O)CC1)C(=O)O)C(=O)O)C(=O)O)C(=O)O)C(=O)O)C(=O)O)C(=O)O)C(=O)N[C@@H](CC(=O)O)C(=O)N[C@@H](Cc1ccccc1)C(N)=O [[nat/177Lu]Lu-(R)-DOTAGA-rhCCK-17, metal not drawn] | -2.1 ± 0.06
3 | CCCC[C@H](NC(=O)[C@H](Cc1c[nH]c2ccccc12)NC(=O)CNC(=O)[C@H](Cc1ccc(O)cc1)NC(=O)[C@H](C)NC(=O)CC[C@@H](NC(=O)CC[C@@H](NC(=O)CC[C@@H](NC(=O)CC[C@@H](NC(=O)CC[C@@H](NC(=O)CC[C@@H](NC(=O)CC[C@@H](NC(=O)CC[C@@H](NC(=O)[C@@H](CNC(=O)c1ccc([Si](F)(C(C)(C)C)C(C)(C)C)cc1)NC(=O)CC[C@H](C(=O)O)N1CCN(CC(=O)O)CCN(CC(=O)O)CCN(CC(=O)O)CC1)C(=O)O)C(=O)O)C(=O)O)C(=O)O)C(=O)O)C(=O)O)C(=O)O)C(=O)O)C(=O)N[C@@H](CC(=O)O)C(=O)N[C@@H](Cc1ccccc1)C(N)=O [[nat/177Lu]Lu-(R)-DOTAGA-rhCCK-18, metal not drawn] | -2.16 ± 0.09

Same assay, conditions: pH 7.4

Row | SMILES | logD
4 | CCCC[C@H](NC(=O)[C@H](Cc1c[nH]c2ccccc12)NC(=O)CNC(=O)[C@H](Cc1ccc(O)cc1)NC(=O)[C@H](C)NC(=O)CC[C@@H](NC(=O)CC[C@@H](NC(=O)CC[C@@H](NC(=O)CC[C@@H](NC(=O)CC[C@@H](NC(=O)CC[C@@H](NC(=O)CN1CCN(CC(=O)O)CCN(CC(=O)O)CCN(CC(=O)O)CC1)C(=O)O)C(=O)O)C(=O)O)C(=O)O)C(=O)O)C(=O)O)C(=O)N[C@@H](CC(=O)O)C(=O)N[C@@H](Cc1ccccc1)C(N)=O [[nat/177Lu]Lu-DOTA-PP-γ-F11N, metal not drawn] ({DOTA-d(γGlu)-d(γGlu)-d(γGlu)-d(γGlu)-d(γGlu)-d(γGlu)}-AYGW[Nle]DF-NH2) | -4.38 ± 0.05
5 | CSCC[C@H](NC(=O)[C@H](Cc1c[nH]c2ccccc12)NC(=O)CNC(=O)[C@H](Cc1ccc(O)cc1)NC(=O)[C@H](C)NC(=O)CC[C@@H](NC(=O)CC[C@@H](NC(=O)CC[C@@H](NC(=O)CC[C@@H](NC(=O)CC[C@@H](NC(=O)CC[C@@H](NC(=O)CN1CCN(CC(=O)O)CCN(CC(=O)O)CCN(CC(=O)O)CC1)C(=O)O)C(=O)O)C(=O)O)C(=O)O)C(=O)O)C(=O)O)C(=O)N[C@@H](CC(=O)O)C(=O)N[C@@H](Cc1ccccc1)C(N)=O [[nat/177Lu]Lu-γ-CP04, metal not drawn] | -4.3 ± 0.08
